Measurements: PMC5964550 (Contrast Media & Molecular Imaging, 2018)
Blank lines part the entries; values can stand above or below the compound they belong to.

Columns and labels:
[1] = [11C]metoclopramide plasma kinetics and metabolism in rats (radio-HPLC); type: in vivo; settings: rat
Excerpt: […]. […] […].

[2] = rat, iv
P-gp = settings: mice, cited from earlier work
human P-gp = test system: human P-gp; parameters: method as in PMID 17962372, PMID 15502009; settings: cited from earlier work
rodent P-gp = test system: rodent P-gp; parameters: method as in PMID 17962372, PMID 15502009; settings: cited from earlier work
[3] = test system: cytochrome P450 2D6 (CYP2D6); settings: cited from earlier work
[4] = cited from earlier work
[5] = test system: P-gp at the canalicular membrane; parameters: method as in PMID 12576431; settings: humans; cited from earlier work
OATP1B3 (SLCO1B3) = test system: OATP1B3 (SLCO1B3); parameters: method as in earlier work; settings: in vitro; cited from earlier work
OATP2B1 (SLCO2B1) = test system: OATP2B1 (SLCO2B1); parameters: method as in earlier work; settings: in vitro; cited from earlier work
OATP1B1 (SLCO1B1) = test system: OATP1B1 (SLCO1B1); parameters: method as in earlier work; settings: in vitro; cited from earlier work

increase in AUCplasma, pharmacologic dose vs tracer dose ([1]; in vivo): 2.1 fold
proportion of parent [11C]metoclopramide in plasma, pharmacologic dose vs tracer dose ([1]; metoclopramide 3 mg/kg, calculated from ref 14): higher
impact of P-gp inhibition on plasma clearance and metabolism ([1]; not told, 8 mg/kg): did not impact
AUCliver (area under the time-activity curve of radioactivity in the liver, 0 to 30 min) ([2]; male, Wistar, in vivo, 3 mg/kg): 42.9 ± 13.8 SUV·min
effect of P-gp inhibition on liver AUC ([2]; not told, 8 mg/kg): did not significantly impact
Structure (SMILES): CCN(CC)CCNC(=O)c1cc(Cl)c(N)cc1O[11CH3] [[^11C]metoclopramide]

Structure (SMILES): CCN(CC)CCNC(=O)c1cc(Cl)c(N)cc1OC [metoclopramide]
influence of P-gp deficiency on metoclopramide PK (P-gp; 3 mg/kg, over 5 hours): no influence
effect of P-gp deficiency on brain distribution (P-gp): enhance
impact of P-gp deficiency on plasma pharmacokinetics (P-gp): no or negligible impact
substrate of human P-gp (human P-gp): substrate
substrate of rodent P-gp (rodent P-gp): substrate
substrate of CYP2D6 [3]: substrate
excreted unchanged in urine ([4]; after intravenous administration): 19%
lower plasma clearance in hepatic impairment (liver cirrhosis) ([4]; liver cirrhosis): 50%

Structure (SMILES): COc1cc2c(cc1OC)CN(CCc1ccc(NC(=O)c3cc(OC)c(OC)cc3NC(=O)c3cnc4ccccc4c3)cc1)CC2 [tariquidar]
effect on liver exposure to [99mTc]sestamibi [5]: enhance
inhibitor of OATP1B3 (OATP1B3 (SLCO1B3)): not
inhibitor of OATP2B1 (OATP2B1 (SLCO2B1)): inhibitor
inhibitor of OATP1B1 (OATP1B1 (SLCO1B1)): not
